Test results: patent US8815919B2, “Oxadiazole derivatives” (Merck Serono SA, priority 2009, dated 2014)
Counter-ions that a name gives are not always drawn. Like-named read-outs stand apart in the source and are kept apart here.

How the values were obtained:
S1P3 = S1P3 (Homo sapiens, UniProt Q99500); experiment: Receptor binding assay, [33P]sphingosine 1-phosphate competition, S1P3 membranes, WGA SPA beads
Method: (§1) Membranes were prepared from CHO cells expressing S1P1 or S1P3 for use in ligand and […] binding studies. Cells were suspended in 50 mM TRIS, pH 7.4, 2 mM EDTA, 250 mM Sucrose (buffer A) and 1× Complete protease inhibitor cocktail (Roche), and disrupted at 4° C. by N2 decompression using a cell disruption bomb (Parr Instrument). Following centrifugation at 1000 RPM for 10 min at 4° C., the supernatant was diluted (2×) in buffer A and centrifuged again at 19000 RPM for 75 min at 4° C. The pellet was then suspended in 10 mM HEPES, pH 7.4, 1 mM EDTA, 250 mM Sucrose (Buffer B), and 1× Complete EDTA-free protease inhibitor cocktail and homogenized using a potter. Membranes were flash frozen in liquid N2 and stored at −80° C.
(§2) Receptor binding assay: [33P]sphingosine 1-phosphate (3000 Ci/mmol; American Radiolabeled Chemicals, Inc.) was added to test compounds in 20% DMSO by competition. Membranes and WGA SPA beads (GE Healthcare) were added to give a final volume of 100 μl in 96-well plates or 50 μl in 384-well plates with assay concentrations of […] [33P]sphingosine 1-phosphate (respectively for S1P1 or S1P3), 50 mM HEPES, pH 7.5, 5 mM MgCl2, 100 mM NaCl, 0.4% fatty acid-free BSA, 1-5 μg/well of proteins in 96-well plates vs 0.6-1 μg/well of proteins in 384-well plates and 100 μg/well of WGA SPA beads in 96-well plates vs 75 μg/well of WGA SPA beads in 384-well plates. Binding was performed for 60 min at RT on a shaker and bound radioactivity was measured on a PerkinElmer 1450 MicroBeta counter. Triplicate samples were averaged and normalized as percentage of inhibition relative to total binding (only DMSO in well) and nonspecific binding (1000-fold excess of unlabeled S1P). Binding data were analyzed using the GraphPad Prism program or Genedata software.

S1P1 [1] = molecular target: T1, S1P1 (Homo sapiens, UniProt P21453); experiment: S1P1 internalization assay in S1P1-U2OS cells (S1P1-EGFP), cell imaging; type: cell-based; set-up: host or cells: U2OS (human bone osteosarcoma epithelial cells), CMV promoter, geneticin selection; conditions: 1 hour incubation
Method: Cellular functional assays: Internalization of Sphingosine-1-phosphate receptor 1 (S1P1) in a human Cell line (U2OS) in a 384-well format using a Cell Imaging analysis. • Jo, E.; Sanna, M. G.; Gonzalez-Cabrera, P. J.; Thangada, S.; Tigyi, S.; Osborne, D. A.; Hla, T.; Parrill, A. L.; Rosen, H. Chem. Biol. 2005, 12, 703
The S1P1 internalization assay was performed in 384 well plates (Corning® 384 black with clear bottom 3712) using S1P1-U2OS cells from Biolmage (C039A), a human epithelial cell line (Human Bone Osteosarcoma Epithelial Cells). These cells expressed the human S1P1 Receptor fused to the green fluorescent protein (EGFP). A standard CMV promoter (cytomegalovirus promoter) controls the expression of S1P1-EGFP and continuous expression was maintained by addition of geneticin to the culture medium.
S1P1 Receptor desensitization induced the internalization of the membrane-localized S1P1-EGFP fusion protein to endosomes, which can be monitored by cell imaging analysis. The cells are plated in low serum medium (Dulbecco's Modified Eagle Medium (DMEM) with Glutamax-1 and high glucose, 1% Penicillin/Streptomycin, 1% Fetal Calf Serum (FCS), 0.5 mg/ml Geneticin) overnight.
The next day, S1P1-U2OS cells are incubated in 20 μl serum free medium (DMEM with Glutamax-1 and high glucose, 0.1% of fatty-acid free Bovin Serum Albumin (BSA), 10 mM, N′-2-Hydroxyethylpiperazine-N′-2 ethanesulphonic acid (HEPES) 1M) for 2 hours at 37° C./5% CO2. The cells are then treated with 4 μl compounds/agonists (6×/3% DMSO) for a total volume of 24 μl, and plates are incubated for 1 hour at 37° C./5% CO2.
S1P1-U2OS cells are fixed with 25 μl Paraformaldehyde 8% and stained with Hoechst 33345 dye (1:1000) for 20 minutes.
They were then washed 3 times with Phosphate Buffered Saline (PBS) and plates are sealed. The internalization of the receptor S1P1-EGFP is measured on Cellomics by calculating the “spot count per object” (“object” corresponds to nuclear and “spot” corresponds to S1P1-EGFP receptor). Internalization data were observed thanks to vHCS View and analyzed using Genedata® software.
Target sequence in this assay (P21453 whole entry): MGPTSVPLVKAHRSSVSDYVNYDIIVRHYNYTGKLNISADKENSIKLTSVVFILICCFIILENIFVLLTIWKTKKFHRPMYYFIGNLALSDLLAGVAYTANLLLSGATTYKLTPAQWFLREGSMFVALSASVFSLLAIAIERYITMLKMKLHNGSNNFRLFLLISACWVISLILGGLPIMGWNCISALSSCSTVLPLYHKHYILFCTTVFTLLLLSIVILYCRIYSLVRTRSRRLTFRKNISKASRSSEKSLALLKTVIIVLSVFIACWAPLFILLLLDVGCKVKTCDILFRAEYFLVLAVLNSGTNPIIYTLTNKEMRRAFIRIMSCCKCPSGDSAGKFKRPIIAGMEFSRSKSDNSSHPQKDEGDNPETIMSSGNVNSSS

S1P1 [2] = molecular target: T1, S1P1; experiment: Receptor binding assay, [33P]sphingosine 1-phosphate competition, S1P1 membranes, WGA SPA beads
Method: as §1, §2
Target sequence in this assay (P21453 whole entry, species assumed): as the sequence (P21453 whole entry) above

[3] = 96 well-plate, read-out: S1P3 binding Ki (M) (96 well-plate)
[4] = 384 well-plate, read-out: S1P3 binding Ki (M) (384 well-plate)
[5] = 96 well-plate, read-out: S1P1 binding Ki (M) (96 well-plate)
[6] = 384 well-plate, read-out: S1P1 binding Ki (M) (384 well-plate)

Sequence of S1P3 (Q99500 whole entry, species assumed): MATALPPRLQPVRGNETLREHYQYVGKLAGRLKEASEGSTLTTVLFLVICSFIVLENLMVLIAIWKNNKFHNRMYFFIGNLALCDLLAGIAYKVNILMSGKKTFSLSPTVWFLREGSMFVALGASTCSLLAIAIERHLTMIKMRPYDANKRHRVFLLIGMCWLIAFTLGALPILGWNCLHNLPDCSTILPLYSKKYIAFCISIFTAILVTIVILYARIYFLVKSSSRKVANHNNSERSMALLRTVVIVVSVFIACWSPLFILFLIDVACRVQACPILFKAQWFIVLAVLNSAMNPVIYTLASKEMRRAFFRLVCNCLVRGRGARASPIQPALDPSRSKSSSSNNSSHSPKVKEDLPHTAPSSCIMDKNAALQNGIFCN

In the case of `Cc1ccccc1-c1ccc(-c2nc(-c3cccc(COCC(=O)O)c3)no2)cc1C(F)(F)F` [Example 48, [(3-{5-[2′-methyl-2-(trifluoromethyl)biphenyl-4-yl]-1,2,4-oxadiazol-3-yl}benzyl)oxy]acetic acid], the Ki (S1P3; [3]) is reported as 6.03e-07 M, the Ki (S1P3; [4]) is reported as 1.08e-06 M and the EC50 (S1P1 [1]) is reported as 7.12 nM. For the same compound, the Ki (S1P1 [2]; [5]) was 9.79e-10 M and the Ki (S1P1 [2]; [6]) was 1.97e-09 M.

`COCc1cc(-c2nc(-c3ccc(CN(C)CC(=O)O)cc3)no2)ccc1-c1ccccc1C` [Example 51, N-(4-{5-[2-(methoxymethyl)-2′-methylbiphenyl-4-yl]-1,2,4-oxadiazol-3-yl}benzyl)-N-methylglycine, hydrochloride salt] showed a Ki (S1P3; [3]) of 7.32e-07 M, a Ki (S1P3; [4]) of 9.17e-07 M and an EC50 (S1P1 [1]) of 4.92 nM. The Ki (S1P1 [2]; [5]) was 3.38e-10 M and the Ki (S1P1 [2]; [6]) was 2.1e-09 M.

`COCc1cc(-c2nc(-c3ccc(CN(C)CC(=O)O)c(F)c3)no2)ccc1-c1ccccc1C` [Example 52, N-(2-fluoro-4-{5-[2-(methoxymethyl)-2′-methylbiphenyl-4-yl]-1,2,4-oxadiazol-3-yl}benzyl)-N-methylglycine, hydrochloride salt] was tested, and the Ki (S1P3; [3]) was 1.27e-07 M, the EC50 (S1P1 [1]) was 2.52 nM and the Ki (S1P1 [2]; [5]) was 1.96e-10 M.

`COCc1cc(-c2nc(-c3ccc(CN(C)CC(=O)O)c(Br)c3)no2)ccc1-c1ccccc1C` [Example 53, N-(2-bromo-4-{5-[2-(methoxymethyl)-2′-methylbiphenyl-4-yl]-1,2,4-oxadiazol-3-yl}benzyl)-N-methylglycine, hydrochloride salt] was tested, and the Ki (S1P3; [3]) was 7e-07 M, the EC50 (S1P1 [1]) was 7.61 nM and the Ki (S1P1 [2]; [5]) was 2.14e-10 M.

`COCc1cc(-c2nc(-c3ccc(CN(C)CC(=O)O)cc3)no2)ccc1-c1ccccc1F` [Example 54, N-(4-{5-[2′-fluoro-2-(methoxymethyl)biphenyl-4-yl]-1,2,4-oxadiazol-3-yl}benzyl)-N-methylglycine, hydrochloride salt] showed a Ki (S1P3; [3]) of 3.21e-07 M, a Ki (S1P3; [4]) of 2.59e-07 M and an EC50 (S1P1 [1]) of 6.36 nM. The Ki (S1P1 [2]; [5]) was 3.04e-10 M and the Ki (S1P1 [2]; [6]) was 9.76e-10 M.

`COCc1cc(-c2nc(-c3ccc(CN(C)CC(=O)O)c(F)c3)no2)ccc1-c1ccccc1F` [Example 55, N-(2-fluoro-4-{5-[2′-fluoro-2-(methoxymethyl)biphenyl-4-yl]-1,2,4-oxadiazol-3-yl}benzyl)-N-methylglycine, hydrochloride salt] gave a Ki (S1P3; [3]) of 7.12e-08 M, a Ki (S1P3; [4]) of 9.2e-08 M and an EC50 (S1P1 [1]) of 8.46 nM. The Ki (S1P1 [2]; [5]) was 1.59e-10 M and the Ki (S1P1 [2]; [6]) was 5.23e-10 M.

With `CC1CCCCN1c1ccc(-c2nc(-c3cc(F)cc(CN(C)CC(=O)O)c3)no2)cc1C(F)(F)F` (stereo not drawn) [Example 56, N-(3-fluoro-5-{5-[4-(2-methylpiperidin-1-yl)-3-(trifluoromethyl)phenyl]-1,2,4-oxadiazol-3-yl}benzyl)-N-methylglycine, hydrochloride salt] the Ki (S1P3; [3]) was 3.79e-08 M, the EC50 (S1P1 [1]) was 20.2 nM and the Ki (S1P1 [2]; [5]) was 3.25e-10 M.

For `COCc1cc(-c2nc(-c3cc(F)cc(CN(C)CC(=O)O)c3)no2)ccc1-c1ccccc1F` [Example 57, N-(3-fluoro-5-{5-[2′-fluoro-2-(methoxymethyl)biphenyl-4-yl]-1,2,4-oxadiazol-3-yl}benzyl)-N-methylglycine, hydrochloride salt], the Ki (S1P3; [3]) was 7.22e-09 M, the EC50 (S1P1 [1]) was 8.46 nM and the Ki (S1P1 [2]; [5]) was 1.14e-10 M.

`COCc1cc(-c2nc(-c3cccc(CN(CC(=O)O)C(C)C)c3)no2)ccc1-c1ccccc1C` [Example 58, N-isopropyl-N-(3-{5-[2-(methoxymethyl)-2′-methylbiphenyl-4-yl]-1,2,4-oxadiazol-3-yl}benzyl)glycine, hydrochloride salt] gave a Ki (S1P3; [3]) of 2.02e-07 M, an EC50 (S1P1 [1]) of 7.87 nM and a Ki (S1P1 [2]; [5]) of 3.91e-10 M.

`COCc1cc(-c2nc(-c3cccc(CN(CC(=O)O)CC(C)C)c3)no2)ccc1-c1ccccc1C` [Example 59, N-isobutyl-N-(3-{5-[2-(methoxymethyl)-2′-methylbiphenyl-4-yl]-1,2,4-oxadiazol-3-yl}benzyl)glycine, hydrochloride salt] gave a Ki (S1P3; [4]) of 8.49e-07 M, an EC50 (S1P1 [1]) of 74.5 nM and a Ki (S1P1 [2]; [5]) of 1.1e-09 M. It also gave a Ki (S1P1 [2]; [6]) of 7.94e-09 M.

With `COCc1cc(-c2nc(-c3ccc(CNCC(=O)O)cc3)no2)ccc1-c1ccccc1C` [Example 60, N-(4-{5-[2-(methoxymethyl)-2′-methylbiphenyl-4-yl]-1,2,4-oxadiazol-3-yl}benzyl)glycine, hydrochloride salt] the Ki (S1P3; [3]) was 1.93e-07 M, the EC50 (S1P1 [1]) was 1.78 nM and the Ki (S1P1 [2]; [5]) was 3.09e-10 M.

`COCc1cc(-c2nc(-c3ccc(CNCC(=O)O)cc3)no2)ccc1-c1ccccc1F` [Example 61, N-(4-{5-[2′-fluoro-2-(methoxymethyl)biphenyl-4-yl]-1,2,4-oxadiazol-3-yl}benzyl)glycine, hydrochloride salt] showed a Ki (S1P3; [3]) of 1.91e-07 M, an EC50 (S1P1 [1]) of 3.36 nM and a Ki (S1P1 [2]; [5]) of 2.26e-10 M.

`CCN(CCC(=O)O)Cc1cccc(-c2noc(-c3ccc(-c4ccccc4F)c(COC)c3)n2)c1` [Example 62, N-ethyl-N-(3-{5-[2′-fluoro-2-(methoxymethyl)biphenyl-4-yl]-1,2,4-oxadiazol-3-yl}benzyl)-beta-alanine, hydrochloride salt] showed a Ki (S1P3; [3]) of 1.72e-08 M, an EC50 (S1P1 [1]) of 2.91 nM and a Ki (S1P1 [2]; [5]) of 1.68e-10 M.

`CCN(CCC(=O)O)Cc1cccc(-c2noc(-c3ccc(-c4ccccc4C)c(COC)c3)n2)c1` [Example 63, N-ethyl-N-(3-{5-[2-(methoxymethyl)-2′-methylbiphenyl-4-yl]-1,2,4-oxadiazol-3-yl}benzyl)-beta-alanine, hydrochloride salt] gave a Ki (S1P3; [3]) of 3.98e-08 M, a Ki (S1P3; [4]) of 1.25e-07 M and an EC50 (S1P1 [1]) of 3.38 nM. It also gave a Ki (S1P1 [2]; [5]) of 1.61e-10 M.

`COCc1cc(-c2nc(-c3cccc(CN(C)CC(=O)O)c3)no2)ccc1-c1cc(F)ccc1Cl` [Example 65, N-(3-{5-[2′-chloro-5′-fluoro-2-(methoxymethyl)biphenyl-4-yl]-1,2,4-oxadiazol-3-yl}benzyl)-N-methylglycine, hydrochloride salt] showed a Ki (S1P3; [3]) of 2.31e-07 M, a Ki (S1P3; [4]) of 3.68e-07 M and an EC50 (S1P1 [1]) of 21.8 nM. For the same compound, the Ki (S1P1 [2]; [5]) was 5.31e-10 M.

`COCc1cc(-c2nc(-c3cccc(CN(CCO)CCC(=O)O)c3)no2)ccc1-c1ccccc1C` [Example 66, N-(2-hydroxyethyl)-N-(3-{5-[2-(methoxymethyl)-2′-methylbiphenyl-4-yl]-1,2,4-oxadiazol-3-yl}benzyl)-beta-alanine, hydrochloride salt] was tested, and the Ki (S1P3; [4]) was 1.4e-06 M, the EC50 (S1P1 [1]) was 44.9 nM and the Ki (S1P1 [2]; [5]) was 5.36e-10 M. It also gave a Ki (S1P1 [2]; [6]) of 2.42e-09 M.

For `COCc1cc(-c2nc(-c3ccc(CN(C)CCC(=O)O)c(F)c3)no2)ccc1-c1ccccc1C` [Example 73, N-(2-fluoro-4-{5-[2-(methoxymethyl)-2′-methylbiphenyl-4-yl]-1,2,4-oxadiazol-3-yl}benzyl)-N-methyl-beta-alanine, hydrochloride salt], the Ki (S1P3; [3]) was 4.95e-08 M, the EC50 (S1P1 [1]) was 1.27 nM and the Ki (S1P1 [2]; [5]) was 1.07e-10 M.

`COCc1cc(-c2nc(-c3ccc(CN(C)CCC(=O)O)cc3)no2)ccc1-c1ccccc1C` [Example 74, N-(4-{5-[2-(methoxymethyl)-2′-methylbiphenyl-4-yl]-1,2,4-oxadiazol-3-yl}benzyl)-N-methyl-beta-alanine, hydrochloride salt] gave a Ki (S1P3; [3]) of 1.08e-07 M, an EC50 (S1P1 [1]) of 1.46 nM and a Ki (S1P1 [2]; [5]) of 2.01e-10 M.
